Results published in patent US8183238B2, “Bicyclic and tricyclic compounds as KAT II inhibitors” (priority 2009, dated 2012).
pIC50: −log10 of the molar value. Counter-ions that a name gives are not always drawn. Like-named read-outs stand apart in the source and are kept apart here. Blank lines part the entries; values can stand above or below the molecule they belong to.

Experiments:
[1] = Prodrug in vivo pharmacokinetics in monkeys (plasma, LC-MS-MS); set-up: species or system Monkey (Cynomolgus); details: for AUC / Cmax / Tmax / half-life: cynomolgus monkey; for F: calculated using IV AUC of 476 ng · h/mL
Experimental: Test substances (Examples 4 and 71-73) were administered by oral gavage to groups of two monkeys.
Blood samples were taken at various times after administration and submitted to analysis for the parent drug (Example 4 and Example 71) and pro-drug (Examples 72 and 73) using an LC-MS-MS assay. […] Pharmacokinetic parameters derived from the plasma analytical data were determined using Watson LIMS 7.2.003 (Thermo Fisher Scientific, Waltham, Mass.). The results are given in FIG. 2 and Tables 13, 14, and 15.

[2] = molecular target: human KAT II (hKAT II) enzyme (Homo sapiens, UniProt Q8N5Z0); experiment: KAT II Inhibition Spectra Assay; format: biochemical; details: hKAT II, decrease in OD370, 37° C., 15-20 h, read-out: KATII IC50
Sequence of human KAT II (hKAT II) enzyme (Q8N5Z0 30-425): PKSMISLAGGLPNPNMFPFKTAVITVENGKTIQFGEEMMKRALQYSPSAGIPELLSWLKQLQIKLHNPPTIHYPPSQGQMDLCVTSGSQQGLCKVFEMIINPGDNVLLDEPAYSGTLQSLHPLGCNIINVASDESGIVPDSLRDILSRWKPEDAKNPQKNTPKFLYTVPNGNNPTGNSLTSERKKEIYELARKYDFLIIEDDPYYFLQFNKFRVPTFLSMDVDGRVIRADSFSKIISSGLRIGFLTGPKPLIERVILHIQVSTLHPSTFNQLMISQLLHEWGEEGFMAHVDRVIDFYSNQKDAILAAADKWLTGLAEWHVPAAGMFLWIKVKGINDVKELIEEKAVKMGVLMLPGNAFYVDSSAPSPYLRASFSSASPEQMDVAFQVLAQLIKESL
Procedure, shortened: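 hKAT II (15 nM, 3× stock) converts L-kynurenine (3 mM, 3× stock) with α-ketoglutarate and PLP in Tris acetate; 15–20 h at 37 °C. Inhibition of the OD370 decrease read versus DMSO wells across a concentration range gives IC50.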

[3] = Prodrug in vivo pharmacokinetics in dogs (plasma, LC-MS-MS); set-up: species or system Dog (Beagle); details: for AUC / Cmax / Tmax / half-life: Beagle, dog
Experimental: Test substances (Examples 4 and 71-73) were administered by oral gavage to groups of two dogs. Example 71 was also administered intravenously.
Blood samples were taken at various times after administration and submitted to analysis for the parent drug (Example 71) and pro-drug (Examples 72 and 73) using an LC-MS-MS assay. Pharmacokinetic parameters derived from the plasma analytical data were determined using Watson LIMS 7.2.003 (Thermo Fisher Scientific, Waltham, Mass.). The results are given in FIG. 1 and Tables 8, 9, 10, and 11.

[4] = Cynomolgus, plasma, po, 3 mg/kg, Example 71 in monkey plasma after oral Example 71 (3 mg/kg active), Mean
[5] = Cynomolgus, plasma, po, 3 mg/kg, Example 71 in monkey plasma after oral Example 71 (3 mg/kg active), Monkey 1
[6] = Cynomolgus, plasma, po, 3 mg/kg, Example 71 in monkey plasma after oral Example 71 (3 mg/kg active), Monkey 2
[7] = Example 71 in monkey plasma after oral Example 71 (3 mg/kg active), Mean
[8] = Example 71 in monkey plasma after oral Example 71 (3 mg/kg active), Monkey 1
[9] = Example 71 in monkey plasma after oral Example 71 (3 mg/kg active), Monkey 2
[10] = plasma, po, 2 mg/kg, Example 71 in dog plasma after oral Example 71 (2 mg/kg active), Dog 1
[11] = plasma, po, 2 mg/kg, Example 71 in dog plasma after oral Example 71 (2 mg/kg active), Dog 2
[12] = plasma, po, 2 mg/kg, Example 71 in dog plasma after oral Example 71 (2 mg/kg active), Mean
[13] = plasma, po, 1 mg/kg, Example 72 in dog plasma after oral Example 72 (1 mg/kg active), Dog 1
[14] = plasma, po, 1 mg/kg, Example 72 in dog plasma after oral Example 72 (1 mg/kg active), Dog 2
[15] = plasma, po, 1 mg/kg, Example 72 in dog plasma after oral Example 72 (1 mg/kg active), Mean

Structure (SMILES): Cl.N[C@H]1Cc2cc(Oc3ccccc3)ccc2N(O)C1=O [Example 71, (3S)-3-amino-1-hydroxy-6-phenoxy-3,4-dihydroquinolin-2(1H)-one, hydrochloride salt]
AUC ([1]; Cynomolgus, in vivo, plasma exposure of Example 71 in monkeys following intravenous administration of Example 71 at 0.5 mg/kg, read-out: AUC): 476 ng·h/mL
Cmax [1, 4]: 53.4 ng/mL
Tmax [1, 4]: 22.8 min
half-life [1, 4]: 52.9 min
Cmax [1, 5]: 44 ng/mL
Tmax [1, 5]: 15 min
half-life [1, 5]: 62.4 min
Cmax [1, 6]: 62.8 ng/mL
Tmax [1, 6]: 30 min
half-life [1, 6]: 43.4 min
% AUC Extrap [1, 7]: 1.28%
% AUC Extrap [1, 8]: 2.19%
% AUC Extrap [1, 9]: 0.366%
F [1, 7]: 3.2%
F [1, 8]: 2.2%
F [1, 9]: 4.2%
AUC ([1]; plasma, po, 3 mg/kg, Example 71 in monkey plasma after oral Example 71 (3 mg/kg active), Mean, read-out: AUC): 94.8 ng·h/mL
AUC ([1]; plasma, po, 3 mg/kg, Example 71 in monkey plasma after oral Example 71 (3 mg/kg active), Mean, read-out: AUC Extrap): 95.4 ng·h/mL
AUC ([1]; plasma, po, 3 mg/kg, Example 71 in monkey plasma after oral Example 71 (3 mg/kg active), Monkey 1, read-out: AUC): 55.5 ng·h/mL
AUC ([1]; plasma, po, 3 mg/kg, Example 71 in monkey plasma after oral Example 71 (3 mg/kg active), Monkey 1, read-out: AUC Extrap): 56.7 ng·h/mL
AUC ([1]; plasma, po, 3 mg/kg, Example 71 in monkey plasma after oral Example 71 (3 mg/kg active), Monkey 2, read-out: AUC): 134 ng·h/mL
AUC ([1]; plasma, po, 3 mg/kg, Example 71 in monkey plasma after oral Example 71 (3 mg/kg active), Monkey 2, read-out: AUC Extrap): 134 ng·h/mL
pIC50 ([2]; Table 6): 7.64
AUC ([3]; in vivo, exposure of Example 71 in dogs following intravenous administration of Example 71 at 0.5 mg/kg, read-out: AUC): 247 ng·h/mL
Cmax [3, 10]: 25.4 ng/mL
Tmax [3, 10]: 15 min
half-life [3, 10]: 26.3 min
AUC ([3]; plasma, po, 2 mg/kg, Example 71 in dog plasma after oral Example 71 (2 mg/kg active), Dog 1, read-out: AUC): 10.3 ng·h/mL
AUC ([3]; plasma, po, 2 mg/kg, Example 71 in dog plasma after oral Example 71 (2 mg/kg active), Dog 1, read-out: AUC Extrap): 10.7 ng·h/mL
Cmax [3, 11]: 15.4 ng/mL
Tmax [3, 11]: 15 min
half-life [3, 11]: 17.9 min
AUC ([3]; plasma, po, 2 mg/kg, Example 71 in dog plasma after oral Example 71 (2 mg/kg active), Dog 2, read-out: AUC): 12.2 ng·h/mL
AUC ([3]; plasma, po, 2 mg/kg, Example 71 in dog plasma after oral Example 71 (2 mg/kg active), Dog 2, read-out: AUC Extrap): 12.5 ng·h/mL
Cmax [3, 12]: 20.4 ng/mL
Tmax [3, 12]: 15 min
half-life [3, 12]: 22.1 min
AUC ([3]; plasma, po, 2 mg/kg, Example 71 in dog plasma after oral Example 71 (2 mg/kg active), Mean, read-out: AUC): 11.3 ng·h/mL
AUC ([3]; plasma, po, 2 mg/kg, Example 71 in dog plasma after oral Example 71 (2 mg/kg active), Mean, read-out: AUC Extrap): 11.6 ng·h/mL
% AUC Extrap ([3]; Example 71 in dog plasma after oral Example 71 (2 mg/kg active), Dog 1): 3.44%
% AUC Extrap ([3]; Example 71 in dog plasma after oral Example 71 (2 mg/kg active), Dog 2): 2.35%
% AUC Extrap ([3]; Example 71 in dog plasma after oral Example 71 (2 mg/kg active), Mean): 2.9%
F ([3]; Example 71 in dog plasma after oral Example 71 (2 mg/kg active), calculated using IV AUC of 247 ng · h/mL, Dog 1): 1.0%
F ([3]; Example 71 in dog plasma after oral Example 71 (2 mg/kg active), calculated using IV AUC of 247 ng · h/mL, Dog 2): 1.3%
F ([3]; Example 71 in dog plasma after oral Example 71 (2 mg/kg active), calculated using IV AUC of 247 ng · h/mL, Mean): 1.2%

Structure (SMILES): NC1Cc2ccc(-c3cc(Cl)cc(Cl)c3)cc2N(O)C1=O (centres unmarked) [Example 58, 3-amino-7-(3,5-dichlorophenyl)-1-hydroxy-3,4-dihydroquinolin-2(1H)-one, trifluoroacetate salt]
pIC50 ([2]; Table 5): 6.76

Structure (SMILES): NC1Cc2cc(Cl)ccc2N(O)C1=O (centres unmarked) [Example 16]
pIC50 ([2]; Table 5): 7.64

Structure (SMILES): N[C@H]1Cc2cc(-c3ccc(F)cc3F)ccc2N(O)C1=O [Example 147, (3S)-3-amino-6-(2,4-difluorophenyl)-1-hydroxy-3,4-dihydroquinolin-2(1H)-one, trifluoroacetate salt]
pIC50 ([2]; Table 6): 7.12

Structure (SMILES): NC1Cc2ccc(-c3ccc(OC(F)(F)F)cc3)cc2N(O)C1=O (centres unmarked) [Example 61, 3-amino-1-hydroxy-7-[4-(trifluoromethoxy)phenyl]-3,4-dihydroquinolin-2(1H)-one, trifluoroacetate salt]
pIC50 ([2]; Table 5): 6.79

Structure (SMILES): CN(C)c1ccc(-c2ccc3c(c2)N(O)C(=O)C(N)C3)cn1 (centres unmarked) [Example 48, 3-amino-7-[6-(dimethylamino)pyridin-3-yl]-1-hydroxy-3,4-dihydroquinolin-2(1H)-one, trifluoroacetate salt]
pIC50 ([2]; Table 5): 6.28

Structure (SMILES): NC1Cc2ccc(-c3ccccc3)cc2N(O)C1=O (centres unmarked) [Example 42, 3-amino-1-hydroxy-7-phenyl-3,4-dihydroquinolin-2(1H)-one, trifluoroacetate salt]
pIC50 ([2]; Table 5): 7.00

Next, values leading:

Plasma levels of Example 72 ([1]; monkeys, oral gavage of Example 72, all time points): below the limit of quantitation
AUC ([3]; plasma, iv, 0.47 mg/kg, exposure of Example 72 in dogs following intravenous administration of Example 72 at 0.47 mg/kg, read-out: AUC): 497 ng·h/mL
Cmax [3, 13]: 142 ng/mL
Tmax [3, 13]: 30 min
half-life [3, 13]: 139 min
AUC ([3]; plasma, po, 1 mg/kg, Example 72 in dog plasma after oral Example 72 (1 mg/kg active), Dog 1, read-out: AUC): 402 ng·h/mL
AUC ([3]; plasma, po, 1 mg/kg, Example 72 in dog plasma after oral Example 72 (1 mg/kg active), Dog 1, read-out: AUC Extrap): 455 ng·h/mL
Cmax [3, 14]: 248 ng/mL
Tmax [3, 14]: 60 min
half-life [3, 14]: 116 min
AUC ([3]; plasma, po, 1 mg/kg, Example 72 in dog plasma after oral Example 72 (1 mg/kg active), Dog 2, read-out: AUC): 721 ng·h/mL
AUC ([3]; plasma, po, 1 mg/kg, Example 72 in dog plasma after oral Example 72 (1 mg/kg active), Dog 2, read-out: AUC Extrap): 790 ng·h/mL
Cmax [3, 15]: 195 ng/mL
Tmax [3, 15]: 45 min
half-life [3, 15]: 128 min
AUC ([3]; plasma, po, 1 mg/kg, Example 72 in dog plasma after oral Example 72 (1 mg/kg active), Mean, read-out: AUC): 562 ng·h/mL
AUC ([3]; plasma, po, 1 mg/kg, Example 72 in dog plasma after oral Example 72 (1 mg/kg active), Mean, read-out: AUC Extrap): 623 ng·h/mL
% AUC Extrap ([3]; Example 72 in dog plasma after oral Example 72 (1 mg/kg active), Dog 1): 11.7%
% AUC Extrap ([3]; Example 72 in dog plasma after oral Example 72 (1 mg/kg active), Dog 2): 8.77%
% AUC Extrap ([3]; Example 72 in dog plasma after oral Example 72 (1 mg/kg active), Mean): 10.2%
F ([3]; Example 72 in dog plasma after oral Example 72 (1 mg/kg active), calculated using IV AUC of 497 ng · h/mL, Dog 1): 38%
F ([3]; Example 72 in dog plasma after oral Example 72 (1 mg/kg active), calculated using IV AUC of 497 ng · h/mL, Dog 2): 54%
F ([3]; Example 72 in dog plasma after oral Example 72 (1 mg/kg active), calculated using IV AUC of 497 ng · h/mL, Mean): 46%
Structure (SMILES): CN(C)C(=O)ON1C(=O)[C@@H](N)Cc2cc(Oc3ccccc3)ccc21 [Example 72, (3S)-3-amino-1-[(dimethylcarbamoyl)oxy]-6-phenoxy-3,4-dihydroquinolin-2(1H)-one]

pIC50 ([2]; Table 6): 7.27
Structure (SMILES): N[C@H]1Cc2c(ccc(Cl)c2F)N(O)C1=O [Example 117]

pIC50 ([2]; Table 6): 6.52
Structure (SMILES): N[C@H]1Cc2cc(Cl)cc(Cl)c2N(O)C1=O [Example 113]

pIC50 ([2]; Table 6): 7.37
Structure (SMILES): N#Cc1ccc(Oc2ccc3c(c2)C[C@H](N)C(=O)N3O)cc1C(F)(F)F [Example 164, 4-{[(3S)-3-amino-1-hydroxy-2-oxo-1,2,3,4-tetrahydroquinolin-6-yl]oxy}-2-(trifluoromethyl)benzonitrile, trifluoroacetate salt]
